Laboratory results taken from patent US20260335299A1, “SUBSTITUTED OXOISOINDOLINYL PIPERIDINE-2,6-DIONE COMPOUND AS ANTICANCER AGENT” (BRISTOL-MYERS SQUIBB COMPANY, priority 2023, published 2026).

Biological target: IKZF1 Ikaros (Homo sapiens, UniProt Q13422+Q96SW2)
Experiment: Human CD8+ T Cell Reprogramming (Degradation) Assay (Ikaros)
Format: cell-based
Design: Cryopreserved healthy donor human peripheral blood mononuclear cells (PBMC); endogenous in cells; host or cells: CD8+ T cells within healthy donor human PBMC
Settings: CD8+ T cells, human PBMC, 24 h
Method: Cryopreserved healthy donor human peripheral blood mononuclear cells (PBMC) from healthy donors were thawed and seeded at 500,000 cells/well of 96-well round bottom plates in RPMI 1640 media (Gibco) supplemented with 10% FBS, Pen/Strep (Gibco), MEM-NEAA (Gibco), and sodium pyruvate (Gibco). Cells were treated with titrated doses of compound for 24 hours at 37° C., 5% CO2 before analyzing by flow cytometry.
For flow cytometry staining, cells were washed twice with flow cytometry staining buffer (Thermo Fisher) and incubated in Human Tru-stain Fc block (Biolegend) for 10 minutes before adding eFluor780 viability dye (Thermo Fisher) and surface marker antibody cocktail containing LD-eFluor780, CD3-BUV-395, CD4-BUV805, CD8-FITC, and CD25-BV605 for 30 minutes at 4° C. Cells were then fixed and permeabilized by incubation with permeabilization buffer (eBioscience FoxP3 buffer set 00-5523-00) for 30 minutes at 4° C. as per the kit manufacturer's instructions. Cells were washed twice with the Perm/Wash buffer supplied in the kit as per the manufacturer's instructions and incubated overnight at 4° C. with an intracellular antibody cocktail comprised of antibodies specific for the transcription factors (i.e., Foxp3-BV421, HELIOS-PE-Cy7, EOS-PE, IKAROS-PECF594, AIOLOS-AF647). Cells were washed twice with Perm/Wash buffer and resuspended in flow cytometry staining buffer (Thermo Fisher) prior to acquisition. Sample acquisition and analysis was performed using a BD LSRFortessa (BD Biosciences) flow cytometer. Single-stain controls for each fluorochrome were prepared using UltraComp eBead Compensation Beads (Thermo Fisher). Data were analyzed using FlowJo version 10 and GraphPad Prism Software.
Table D-1 lists the maximum observed degradation of the IKZF1 protein and IKZF3 protein as measured in the Human CD8^+ T Cell Reprogramming assay. The results in Table D-1 were rounded to two digits. In the Human CD8^+ T Cell Reprogramming assay, a value of 100% indicated no detectable protein remaining or complete degradation of the protein; and a value of 0% indicated no detectable degradation of the protein by the test compound.

IKZF1 Ikaros, sequence (Q13422 whole entry): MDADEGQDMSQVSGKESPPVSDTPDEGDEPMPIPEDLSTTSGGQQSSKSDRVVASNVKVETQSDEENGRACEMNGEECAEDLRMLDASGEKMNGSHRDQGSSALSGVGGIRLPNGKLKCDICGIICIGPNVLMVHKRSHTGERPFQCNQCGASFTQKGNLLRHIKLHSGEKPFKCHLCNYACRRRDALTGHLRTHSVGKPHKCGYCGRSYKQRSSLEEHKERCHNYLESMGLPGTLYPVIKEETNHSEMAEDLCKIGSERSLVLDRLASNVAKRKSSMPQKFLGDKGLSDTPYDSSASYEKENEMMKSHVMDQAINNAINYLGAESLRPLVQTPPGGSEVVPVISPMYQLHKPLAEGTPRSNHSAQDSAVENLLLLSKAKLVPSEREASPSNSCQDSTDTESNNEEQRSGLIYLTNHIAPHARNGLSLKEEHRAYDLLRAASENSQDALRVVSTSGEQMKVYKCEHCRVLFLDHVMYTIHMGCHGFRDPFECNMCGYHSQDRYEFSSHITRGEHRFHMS
IKZF1 Ikaros, sequence (Q96SW2 whole entry): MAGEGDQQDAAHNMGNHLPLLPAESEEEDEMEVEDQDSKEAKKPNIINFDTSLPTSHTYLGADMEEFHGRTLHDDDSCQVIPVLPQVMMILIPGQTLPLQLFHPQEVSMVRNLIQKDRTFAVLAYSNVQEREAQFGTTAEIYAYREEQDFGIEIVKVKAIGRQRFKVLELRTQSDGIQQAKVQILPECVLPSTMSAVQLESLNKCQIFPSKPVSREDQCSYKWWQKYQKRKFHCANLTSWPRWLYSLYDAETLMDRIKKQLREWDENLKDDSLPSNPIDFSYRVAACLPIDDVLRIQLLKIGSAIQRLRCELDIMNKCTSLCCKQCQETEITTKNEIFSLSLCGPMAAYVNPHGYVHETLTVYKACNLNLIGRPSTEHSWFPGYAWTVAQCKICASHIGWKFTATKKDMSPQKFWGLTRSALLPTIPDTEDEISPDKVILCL
IKZF1 Ikaros, sequence (Q16531 whole entry partner): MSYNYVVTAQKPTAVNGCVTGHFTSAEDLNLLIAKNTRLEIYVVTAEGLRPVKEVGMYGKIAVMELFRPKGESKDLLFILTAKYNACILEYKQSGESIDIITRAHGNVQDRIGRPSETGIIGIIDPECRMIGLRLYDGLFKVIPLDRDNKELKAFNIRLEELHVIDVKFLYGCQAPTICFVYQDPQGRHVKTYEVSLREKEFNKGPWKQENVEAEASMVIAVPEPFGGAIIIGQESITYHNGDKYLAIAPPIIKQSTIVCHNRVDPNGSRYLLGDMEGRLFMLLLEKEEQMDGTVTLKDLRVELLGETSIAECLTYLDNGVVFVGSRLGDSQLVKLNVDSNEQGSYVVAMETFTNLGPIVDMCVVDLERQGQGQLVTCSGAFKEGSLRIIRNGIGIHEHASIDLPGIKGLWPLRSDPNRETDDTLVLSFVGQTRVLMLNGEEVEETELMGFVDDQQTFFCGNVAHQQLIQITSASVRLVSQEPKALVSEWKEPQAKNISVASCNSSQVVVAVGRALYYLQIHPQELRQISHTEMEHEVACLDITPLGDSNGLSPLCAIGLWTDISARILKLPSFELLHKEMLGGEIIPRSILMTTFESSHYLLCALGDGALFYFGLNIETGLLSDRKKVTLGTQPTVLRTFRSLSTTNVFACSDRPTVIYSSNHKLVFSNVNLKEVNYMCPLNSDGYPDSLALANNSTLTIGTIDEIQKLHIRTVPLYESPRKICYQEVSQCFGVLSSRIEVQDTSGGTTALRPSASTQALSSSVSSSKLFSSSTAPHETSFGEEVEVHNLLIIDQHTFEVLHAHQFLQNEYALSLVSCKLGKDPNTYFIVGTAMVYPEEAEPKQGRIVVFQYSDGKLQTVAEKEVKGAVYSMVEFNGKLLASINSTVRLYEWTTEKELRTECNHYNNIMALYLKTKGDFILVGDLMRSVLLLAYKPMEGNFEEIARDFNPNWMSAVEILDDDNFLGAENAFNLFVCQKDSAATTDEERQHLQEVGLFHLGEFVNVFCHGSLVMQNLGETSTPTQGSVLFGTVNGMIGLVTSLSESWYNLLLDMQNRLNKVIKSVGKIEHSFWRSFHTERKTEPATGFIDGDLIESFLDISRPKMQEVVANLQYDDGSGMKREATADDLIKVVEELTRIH

**Q.** How did the DC50 (concentration reducing protein level by 50% compared to DMSO alone) turn out when Nc1nc(-c2ccc3c(c2F)CN(C2CCC(=O)NC2=O)C3=O)ccc1CN1CC(C2CCC(F)(F)CC2)C1 (centres unmarked) [Example 1, 3-(5-(6-Amino-5-((3-(4,4-difluorocyclohexyl)azetidin-1-yl)methyl)pyridin-2-yl)-4-fluoro-1-oxoisoindolin-2-yl) piperidine-2,6-dione] was run?
**A.** 35 to 44 nM

**Q.** What about the Dmax (read-out: IKZF1 Ikaros Maximum Observed Degradation) of the same compound?
**A.** 86%
